Starred links: 1 amine or outer side, 2 acyl side, 3 side chain; linkers in the order of their positions; H or OH if unused. Positions of bridges follow the written chain, without caps; N, C: chain ends. Non-standard residues stand in square brackets, D forms with d. Residues, ends and D or L forms follow the SMILES beside them. *: point of attachment. X1 = O=C([C@H](Cc1cccc(C(=O)[*:3])c1)N[*:1])[*:2]; Nle(6-morpholino) = N[C@@H](CCCCN1CCOCC1)C(=O)O; Phe(3-COOH) = N[C@@H](Cc1cccc(C(=O)O)c1)C(=O)O; Trp(7-aza) = N[C@@H](Cc1c[nH]c2ncccc12)C(=O)O; NH(CH2CH2O)8Me = COCCOCCOCCOCCOCCOCCOCCOCCN*; NMePhe(3-Cl) = CN[C@@H](Cc1cccc(Cl)c1)C(=O)O; 3Pal(6-NH2) = Nc1ccc(C[C@H](N)C(=O)O)cn1; X2 = COCCOCCOCCOCCOCCOCCOCCOCCNC(=O)C*; NMeY = CN[C@@H](Cc1ccc(O)cc1)C(=O)O; PEG4 = NCCOCCOCCOCCOCCC(=O)O; Carboxymethyl = O=C(O)C*
Target: T1, human transferrin receptor (hTfR) (Homo sapiens, UniProt P02786)
T1 construct: made in house
Test: Evaluation of molecular interaction between transferrin receptor (hTfR) and peptide using surface plasmon resonance (SPR)
Format: binding
Details: peptide with linker, surface plasmon resonance; read-out: SPR (KD class for binding to hTfR)
In short: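 Steps: NTA chip loaded with NiCl2, activated with EDC/NHS, coated with 0.5 μM hTfR dimer, capped with ethanolamine. Peptides diluted from DMSO stock into running buffer (pH 8.0, 1.0% DMSO) at 5–100 nM and injected in single-cycle mode. Sensorgrams fitted to give KD.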

T1 sequence (P02786 89-760 limits assumed): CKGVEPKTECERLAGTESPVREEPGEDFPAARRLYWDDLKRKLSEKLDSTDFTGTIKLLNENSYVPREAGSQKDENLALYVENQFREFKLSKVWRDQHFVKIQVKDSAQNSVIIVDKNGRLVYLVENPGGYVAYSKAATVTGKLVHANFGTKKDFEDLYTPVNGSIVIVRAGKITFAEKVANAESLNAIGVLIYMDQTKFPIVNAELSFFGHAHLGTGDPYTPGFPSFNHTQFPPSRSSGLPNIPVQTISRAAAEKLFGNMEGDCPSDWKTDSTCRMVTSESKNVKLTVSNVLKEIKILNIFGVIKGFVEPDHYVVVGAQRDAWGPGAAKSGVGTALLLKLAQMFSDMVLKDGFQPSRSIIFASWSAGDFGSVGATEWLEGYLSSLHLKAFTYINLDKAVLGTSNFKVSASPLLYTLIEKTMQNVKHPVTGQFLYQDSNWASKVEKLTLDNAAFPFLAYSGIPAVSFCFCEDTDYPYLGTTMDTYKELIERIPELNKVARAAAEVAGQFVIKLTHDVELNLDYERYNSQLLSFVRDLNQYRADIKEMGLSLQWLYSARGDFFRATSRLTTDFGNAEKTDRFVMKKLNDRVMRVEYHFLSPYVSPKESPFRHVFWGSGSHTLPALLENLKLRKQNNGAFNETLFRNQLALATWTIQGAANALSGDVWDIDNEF

SMILES	Kd
CC[C@H](C)[C@@H]1NC(=O)[C@H](Cc2ccc(OCC(=O)NCCOCCOCCOCCOCCOCCOCCOCCOC)cc2)NC(=O)[C@H](Cc2ccc(O)cc2)NC(=O)[C@H](CC(N)=O)NC(=O)[C@H](Cc2c[nH]c3ncccc23)NC(=O)[C@H](C(C)C)NC(=O)[C@H](Cc2cccc(Cl)c2)N(C)C(=O)[C@H](C(C)C)NC(=O)[C@H](C)NC(=O)CSC[C@@H](C(=O)NCCOCCOCCOCCOCCC(N)=O)NC(=O)[C@H](Cc2ccc(O)cc2)N(C)C(=O)[C@H](Cc2cccc(C(=O)NCCOCCOCCOCCOCCOCCOCCOCCOC)c2)NC(=O)[C@H](CCC(N)=O)NC(=O)[C@H](CCC(N)=O)NC(=O)[C@H]([C@@H](C)CC)NC1=O [compound 229] ({CH2CO}-AV[NMePhe(3-Cl)]V[Trp(7-aza)]NYY(X2)IIQQ[X1](NH(CH2CH2O)8Me)[NMeY]C[PEG4]-NH2; thioether N-15)	1 to 100 nM
CC[C@H](C)[C@@H]1NC(=O)[C@H](Cc2ccc(OCC(=O)O)cc2)NC(=O)[C@H](Cc2ccc(O)cc2)NC(=O)[C@H](CC(N)=O)NC(=O)[C@H](Cc2c[nH]c3ncccc23)NC(=O)[C@H](C(C)C)NC(=O)[C@H](Cc2cccc(Cl)c2)N(C)C(=O)[C@H](C(C)C)NC(=O)[C@H](C)NC(=O)CSC[C@@H](C(=O)NCCOCCOCCOCCOCCC(N)=O)NC(=O)[C@H](Cc2ccc(O)cc2)N(C)C(=O)[C@H](Cc2cccc(C(=O)O)c2)NC(=O)[C@H](CCCNC(=N)N)NC(=O)[C@H](CCC(=O)NCCOCCOCCOCCOCCOCCOCCOCCOC)NC(=O)[C@H]([C@@H](C)CC)NC1=O [compound 230]	1 to 100 nM
CC[C@H](C)[C@@H]1NC(=O)[C@H](Cc2ccc(OCC(=O)O)cc2)NC(=O)[C@H](Cc2ccc(O)cc2)NC(=O)[C@H](CC(N)=O)NC(=O)[C@H](Cc2cn(CC(=O)O)c3ccccc23)NC(=O)[C@H](C(C)C)NC(=O)[C@H](Cc2cccc(Cl)c2)N(C)C(=O)[C@H](C(C)C)NC(=O)[C@H](C)NC(=O)CSC[C@@H](C(=O)NCCOCCOCCOCCOCCC(N)=O)NC(=O)[C@H](Cc2ccc(O)cc2)N(C)C(=O)[C@H](Cc2ccncc2)NC(=O)[C@H](CCCNC(=N)N)NC(=O)[C@H](CCC(=O)NCCOCCOCCOCCOCCOCCOCCOCCOC)NC(=O)[C@H]([C@@H](C)CC)NC1=O [compound 231]	1 to 100 nM

Continued, values first:

Kd	SMILES
100 to 1000 nM	CC[C@H](C)[C@@H]1NC(=O)[C@H](Cc2ccc(OCC(=O)O)cc2)NC(=O)[C@H](Cc2ccc(N)nc2)NC(=O)[C@H](CC(N)=O)NC(=O)[C@H](Cc2c[nH]c3ncccc23)NC(=O)[C@H](C(C)C)NC(=O)[C@H](Cc2cccc(Cl)c2)N(C)C(=O)[C@H](C(C)C)NC(=O)[C@H](C)NC(=O)CSC[C@@H](C(=O)NCCOCCOCCOCCOCCC(N)=O)NC(=O)[C@H](Cc2ccc(O)cc2)N(C)C(=O)[C@H](CCC(=O)NCCOCCOCCOCCOCCOCCOCCOCCOC)NC(=O)[C@H](CCCNC(=N)N)NC(=O)[C@H](CCC(=O)NCCOCCOCCOCCOCCOCCOCCOCCOC)NC(=O)[C@H]([C@@H](C)CC)NC1=O [compound 232] ({CH2CO}-AV[NMePhe(3-Cl)]V[Trp(7-aza)]N[3Pal(6-NH2)]Y(Carboxymethyl)IIE(NH(CH2CH2O)8Me)RE(NH(CH2CH2O)8Me)[NMeY]C[PEG4]-NH2; thioether N-15)
1 to 100 nM	CC[C@H](C)[C@@H]1NC(=O)[C@H](Cc2ccc(OCC(=O)O)cc2)NC(=O)[C@H](Cc2ccc(N)nc2)NC(=O)[C@H](CC(N)=O)NC(=O)[C@H](Cc2c[nH]c3ncccc23)NC(=O)[C@H](C(C)C)NC(=O)[C@H](Cc2cccc(Cl)c2)N(C)C(=O)[C@H](C(C)C)NC(=O)[C@H](C)NC(=O)CSC[C@@H](C(=O)NCCOCCOCCOCCOCCC(N)=O)NC(=O)[C@H](Cc2ccc(O)cc2)N(C)C(=O)[C@H](Cc2cccc(C(=O)O)c2)NC(=O)[C@H](CCCCN2CCOCC2)NC(=O)[C@H](CCC(=O)NCCOCCOCCOCCOCCOCCOCCOCCOC)NC(=O)[C@H]([C@@H](C)CC)NC1=O [compound 233] ({CH2CO}-AV[NMePhe(3-Cl)]V[Trp(7-aza)]N[3Pal(6-NH2)]Y(Carboxymethyl)IIE(NH(CH2CH2O)8Me)[Nle(6-morpholino)][Phe(3-COOH)][NMeY]C[PEG4]-NH2; thioether N-15)

Source: US20260116920A1, “HUMAN TRANSFERRIN RECEPTOR BINDING PEPTIDE” (PEPTIDREAM INC., priority 2021, published 2026)
